Drawing on patent publication US12110276B2 (Genentech, Inc., priority 2021, dated 2024), this text covers IC50 for 21 compounds.

In one assay the target is TEAD1 (Homo sapiens (Human), UniProt P28347). Nature of the assay: TR-FRET lipid pocket probe competition assay (Lipid HTRF), TEAD1.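 Also: His-tagged TEAD1 with biotinylated probe, detected via Europium anti-His and XL665 streptavidin, probe displacement lowers TR-FRET signal, IC50 from four-parameter nonlinear fit.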 Type of assay: binding.
Another assay concerns the target TEAD3 (Homo sapiens (Human), UniProt Q99594). Nature of the assay: TR-FRET lipid pocket probe competition assay (Lipid HTRF), TEAD3. It counts as binding.
The target of a further assay is TEAD4 (Homo sapiens (Human), UniProt Q15561). Nature of the assay: TR-FRET lipid pocket probe competition assay (Lipid HTRF), TEAD4.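 Also: His-tagged TEAD4 with biotinylated lipid-pocket probe, read by Europium anti-His and XL665 streptavidin, where probe displacement lowers the TR-FRET signal, IC50 from a four-parameter fit.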 Type of assay: binding.
TEAD4, sequence (Q15561 whole entry, species assumed): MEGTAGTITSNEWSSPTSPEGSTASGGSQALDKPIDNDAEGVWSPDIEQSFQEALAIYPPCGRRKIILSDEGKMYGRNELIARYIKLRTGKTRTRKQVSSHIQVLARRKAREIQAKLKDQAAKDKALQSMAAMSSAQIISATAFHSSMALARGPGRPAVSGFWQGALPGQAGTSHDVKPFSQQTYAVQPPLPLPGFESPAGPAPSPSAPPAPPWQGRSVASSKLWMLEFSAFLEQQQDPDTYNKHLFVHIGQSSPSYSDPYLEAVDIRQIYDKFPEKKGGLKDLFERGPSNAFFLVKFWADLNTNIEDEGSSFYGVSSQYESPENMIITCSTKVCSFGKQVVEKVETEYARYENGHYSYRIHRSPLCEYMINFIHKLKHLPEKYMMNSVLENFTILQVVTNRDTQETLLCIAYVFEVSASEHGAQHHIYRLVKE
Assay [1] deals with T1, TEAD2 (Homo sapiens (Human), UniProt Q15562). Nature of the assay: biochemical.
T1 sequence (Q15562 whole entry, species assumed): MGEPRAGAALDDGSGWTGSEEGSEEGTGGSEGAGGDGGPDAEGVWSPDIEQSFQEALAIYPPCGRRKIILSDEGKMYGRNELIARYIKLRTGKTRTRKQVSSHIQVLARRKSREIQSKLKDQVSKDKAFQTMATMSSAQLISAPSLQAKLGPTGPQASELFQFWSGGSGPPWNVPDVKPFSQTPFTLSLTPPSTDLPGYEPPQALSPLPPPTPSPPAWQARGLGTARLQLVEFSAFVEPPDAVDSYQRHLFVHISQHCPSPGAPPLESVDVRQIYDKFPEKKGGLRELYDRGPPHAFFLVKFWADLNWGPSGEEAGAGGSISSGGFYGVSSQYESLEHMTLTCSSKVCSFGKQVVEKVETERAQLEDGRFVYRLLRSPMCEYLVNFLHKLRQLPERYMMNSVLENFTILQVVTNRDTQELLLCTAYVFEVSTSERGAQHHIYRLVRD
A further assay has as its target hNav1.5 sodium channels (Homo sapiens (Human), UniProt Q14524). Nature of the assay: Cloned hNav1.5 sodium channels expressed in CHO cells, QPatch HT automated patch clamp. The note with it: 0.01-100 uM, read-out: NaV1.5 (Phasic) IC50. Type of assay: cell-based.
In assay [2] the target is T1, TEAD2.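 Also: TR-FRET competition assay with His-tagged TEAD protein and a biotinylated lipid pocket probe, compound pre-incubated 30 min or 4 h at room temperature, displacement lowers signal.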
Setting [3] is: 4 hours pre-incubation, read-out: Lipid HTRF TEAD1 IC50.
[4] abbreviates: 4 hours pre-incubation, read-out: Lipid HTRF TEAD3 IC50.
Setting [5] is: 4 hours pre-incubation, read-out: Lipid HTRF TEAD4 IC50.

Where two headings read alike, the source gives them in different places.

TEAD1, sequence (P28347 whole entry, species assumed): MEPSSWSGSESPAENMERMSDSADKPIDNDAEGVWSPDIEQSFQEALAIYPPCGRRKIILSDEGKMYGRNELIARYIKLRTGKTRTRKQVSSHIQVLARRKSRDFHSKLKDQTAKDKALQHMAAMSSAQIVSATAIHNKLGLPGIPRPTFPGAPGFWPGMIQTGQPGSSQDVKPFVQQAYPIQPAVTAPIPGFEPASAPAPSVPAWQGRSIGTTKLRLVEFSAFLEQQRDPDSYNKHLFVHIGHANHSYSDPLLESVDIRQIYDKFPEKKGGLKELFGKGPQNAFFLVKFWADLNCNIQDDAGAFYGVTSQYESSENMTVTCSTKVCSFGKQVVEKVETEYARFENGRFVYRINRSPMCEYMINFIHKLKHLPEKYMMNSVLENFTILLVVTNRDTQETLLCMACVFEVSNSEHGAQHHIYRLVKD
TEAD3, sequence (Q99594 whole entry, species assumed): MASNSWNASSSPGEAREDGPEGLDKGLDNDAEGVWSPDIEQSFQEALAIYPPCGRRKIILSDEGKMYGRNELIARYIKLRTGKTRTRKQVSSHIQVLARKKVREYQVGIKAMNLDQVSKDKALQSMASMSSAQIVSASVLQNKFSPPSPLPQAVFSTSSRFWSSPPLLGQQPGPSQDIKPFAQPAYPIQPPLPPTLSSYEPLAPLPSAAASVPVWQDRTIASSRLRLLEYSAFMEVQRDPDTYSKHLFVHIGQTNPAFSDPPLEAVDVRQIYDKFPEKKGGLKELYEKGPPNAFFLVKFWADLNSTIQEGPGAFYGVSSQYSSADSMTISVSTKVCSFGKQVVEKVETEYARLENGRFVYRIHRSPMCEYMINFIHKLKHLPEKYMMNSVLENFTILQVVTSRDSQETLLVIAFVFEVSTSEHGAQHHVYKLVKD
hNav1.5 sodium channels, sequence (Q14524 whole entry): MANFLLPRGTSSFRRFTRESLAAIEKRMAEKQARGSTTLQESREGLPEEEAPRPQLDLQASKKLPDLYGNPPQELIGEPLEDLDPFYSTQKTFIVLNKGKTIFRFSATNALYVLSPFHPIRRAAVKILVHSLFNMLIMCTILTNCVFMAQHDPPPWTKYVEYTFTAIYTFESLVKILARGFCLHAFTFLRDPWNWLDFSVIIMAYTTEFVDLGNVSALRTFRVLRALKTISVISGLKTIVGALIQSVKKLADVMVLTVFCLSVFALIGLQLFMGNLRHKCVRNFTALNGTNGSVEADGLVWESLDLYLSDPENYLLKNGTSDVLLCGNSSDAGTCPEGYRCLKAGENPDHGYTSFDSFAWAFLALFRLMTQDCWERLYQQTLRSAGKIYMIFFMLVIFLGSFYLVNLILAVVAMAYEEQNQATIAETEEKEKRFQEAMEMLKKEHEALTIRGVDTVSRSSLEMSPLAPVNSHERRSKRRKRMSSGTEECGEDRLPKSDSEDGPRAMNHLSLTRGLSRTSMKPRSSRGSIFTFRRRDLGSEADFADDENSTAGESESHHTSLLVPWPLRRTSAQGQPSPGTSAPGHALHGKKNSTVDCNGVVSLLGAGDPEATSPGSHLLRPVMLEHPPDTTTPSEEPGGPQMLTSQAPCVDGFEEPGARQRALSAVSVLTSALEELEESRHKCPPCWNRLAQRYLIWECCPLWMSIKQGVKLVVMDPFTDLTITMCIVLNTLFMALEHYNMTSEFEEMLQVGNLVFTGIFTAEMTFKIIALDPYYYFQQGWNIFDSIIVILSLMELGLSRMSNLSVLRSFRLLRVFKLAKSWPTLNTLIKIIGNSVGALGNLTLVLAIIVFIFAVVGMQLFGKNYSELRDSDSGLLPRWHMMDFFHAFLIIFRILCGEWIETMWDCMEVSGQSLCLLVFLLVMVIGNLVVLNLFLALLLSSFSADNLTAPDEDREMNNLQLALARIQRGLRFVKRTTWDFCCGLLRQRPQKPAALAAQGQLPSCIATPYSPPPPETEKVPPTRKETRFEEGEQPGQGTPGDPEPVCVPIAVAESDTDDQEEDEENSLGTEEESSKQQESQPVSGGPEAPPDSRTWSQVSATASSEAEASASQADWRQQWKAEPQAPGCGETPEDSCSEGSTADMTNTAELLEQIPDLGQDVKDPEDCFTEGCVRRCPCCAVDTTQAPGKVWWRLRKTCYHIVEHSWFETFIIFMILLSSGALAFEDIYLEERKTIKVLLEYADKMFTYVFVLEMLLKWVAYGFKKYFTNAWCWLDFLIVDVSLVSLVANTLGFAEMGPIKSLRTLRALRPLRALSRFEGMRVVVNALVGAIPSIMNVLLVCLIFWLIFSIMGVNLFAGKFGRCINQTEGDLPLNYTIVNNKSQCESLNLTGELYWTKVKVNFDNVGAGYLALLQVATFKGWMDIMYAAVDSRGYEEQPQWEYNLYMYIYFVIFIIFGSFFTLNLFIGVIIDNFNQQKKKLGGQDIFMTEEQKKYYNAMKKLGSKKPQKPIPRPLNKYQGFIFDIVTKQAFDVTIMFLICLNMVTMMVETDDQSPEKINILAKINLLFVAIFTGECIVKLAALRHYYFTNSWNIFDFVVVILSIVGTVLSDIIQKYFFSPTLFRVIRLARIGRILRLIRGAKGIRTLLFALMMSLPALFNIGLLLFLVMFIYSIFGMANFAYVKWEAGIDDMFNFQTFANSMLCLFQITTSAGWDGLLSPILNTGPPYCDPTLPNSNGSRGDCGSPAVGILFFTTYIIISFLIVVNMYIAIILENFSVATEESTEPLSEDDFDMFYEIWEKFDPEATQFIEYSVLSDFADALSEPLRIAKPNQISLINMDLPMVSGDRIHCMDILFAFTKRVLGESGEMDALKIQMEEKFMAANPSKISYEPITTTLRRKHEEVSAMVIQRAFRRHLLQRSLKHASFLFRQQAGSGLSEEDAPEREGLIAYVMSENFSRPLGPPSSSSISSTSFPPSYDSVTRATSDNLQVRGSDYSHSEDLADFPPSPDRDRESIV
Description for TEAD4: His-tagged TEAD proteins are pre-incubated with TEAD project compounds for 30 minutes or 4 hours at room temperature. Biotinylated lipid pocket probes are then added to the TEAD/Compound mixture and incubated for 60 minutes at room temperature. The lipid pocket probe competes with the test compound for the TEAD lipid pocket until equilibrium is reached. After 60 minutes, Europium labelled anti-His (Perkin Elmer #AD0110) and XL665 labelled streptavidin (CIS Bio 610SAXAC) are added to the TEAD/test compound/lipid pocket mixture and incubated for 30 minutes or 4 hours. […] If a TEAD lipid pocket binder such as binds and displaces the lipid pocket probe, the disruption of the TEAD:probe interaction results in a decrease in TR-FRET signal. The potency of compounds as TEAD lipid pocket binders is determined by IC50 value generated using a non-linear 4 parameter curve fit.
Description for hNav1.5 sodium channels: Example 183 A: Effects of Test Article on Cloned hNav1.5 Sodium Channels Expressed in Mammalian Cells
Chinese hamster ovary (CHO) cells expressing cloned hNav1.5 sodium channels (hNav1.5, encoded by the human SCNSA gene) are responsible for INa sodium channel current. From a 10 mM stock solution, test article was diluted to make a 1 mM, 0.1 mM, and 0.01 mM sub stock, which were stored frozen. All chemicals used in solution preparation were purchased from Sigma-Aldrich (St. Louis, MO) and were of ACS reagent grade purity or higher. Stock solutions of the test articles and the positive control were prepared in dimethyl sulfoxide (DMSO) and stored frozen. Test article and positive control concentrations were prepared fresh daily by diluting stock solutions into a HEPES-buffered physiological saline (HB-PS) solution (composition in mM): NaCl, 137; KCl, 4.0; CaCl2, 1.8; MgCl2, 1; HEPES, 10; Glucose, 10; pH adjusted to 7.4 with NaOH (refrigerated until use). […] Each test article formulation was sonicated (Model 2510/5510, Branson Ultrasonics, Danbury, CT) at room temperature for 20 minutes to facilitate dissolution. In preparation for the recording session, a glass-lined 96-well compound plate was loaded with the appropriate amounts of test and control solutions and placed in the plate well of the QPatch HT® (Sophion Bioscience A/S, Denmark), an automatic parallel patch clamp system. […]

For the compound `C=CC(=O)NCc1nn(-c2ccc(S(F)(F)(F)(F)F)cc2)c2nccc([C@H](O)CO)c12` (stereo in doubt) [Compound 23, N-((4-(1,2-dihydroxyethyl)-1-(4-(pentafluoro-λ^6-sulfanyl)phenyl)-1H-pyrazolo[3,4-b]pyridin-3-yl)methyl)acrylamide], the concentration for half-maximal inhibition (IC50) at TEAD1 (setting [3]) is 43 nM; at TEAD3 (setting [4]) it was 890 nM; on TEAD4 (setting [5]), 17 nM; on TEAD2 [1] it was 66 nM.
As to `C=CC(=O)NCc1nn(-c2ccc(S(F)(F)(F)(F)F)cc2)c2nccc([C@@H](O)CO)c12` (stereo in doubt) [Compound 27, N-((4-(1,2-dihydroxyethyl)-1-(4-(pentafluoro-λ^6-sulfanyl)phenyl)-1H-pyrazolo[3,4-b]pyridin-3-yl)methyl)acrylamide], the 50% inhibitory concentration (IC50) at TEAD1 (setting [3]) is 290 nM; at TEAD3 (setting [4]), 1100 nM; at TEAD4 (setting [5]), 71 nM; at TEAD2 [1], 270 nM.
For `C=CC(=O)NCc1nn(-c2cccc(OC(F)(F)F)c2)c2nccc([C@H](O)CO)c12` (stereo in doubt) [Compound 73, N-((4-(1,2-dihydroxyethyl)-1-(3-(trifluoromethoxy)phenyl)-1H-pyrazolo[3,4-b]pyridin-3-yl)methyl)acrylamide], the IC50 came out at 870 nM at TEAD1 (setting [3]), 290 nM at TEAD3 (setting [4]), 33 nM at TEAD4 (setting [5]) and 430 nM at TEAD2 [1].
Take `C=CC(=O)NCc1nn(-c2ccc(C(F)(F)F)cc2)c2nccc([C@@H](O)CO)c12` (stereo in doubt) [Compound 88, N-((4-(1,2-dihydroxyethyl)-1-(4-(trifluoromethyl)phenyl)-1H-pyrazolo[3,4-b]pyridin-3-yl)methyl)acrylamide]: the IC50 came to 80 nM on TEAD1 (setting [3]), 2100 nM at TEAD3 (setting [4]), 43 nM on TEAD4 (setting [5]) and 150 nM on TEAD2 [1].
Turning to `C=CC(=O)NCc1nn(-c2ccc(C(F)(F)F)cc2)c2nccc([C@H](O)CO)c12` (stereo in doubt) [Compound 100, N-((4-(1,2-dihydroxyethyl)-1-(4-(trifluoromethyl)phenyl)-1H-pyrazolo[3,4-b]pyridin-3-yl)methyl)acrylamide], the 50% inhibitory concentration (IC50) on TEAD1 (setting [3]) turned out to be 480 nM; at TEAD3 (setting [4]), 720 nM; at TEAD4 (setting [5]), 100 nM; at TEAD2 [1] it was 520 nM.
For the compound `C=CC(=O)NCc1nn(-c2cccc(OC(F)(F)F)c2)c2nccc([C@@H](O)CO)c12` (stereo in doubt) [Compound 131, N-((4-(1,2-dihydroxyethyl)-1-(3-(trifluoromethoxy)phenyl)-1H-pyrazolo[3,4-b]pyridin-3-yl)methyl)acrylamide], the concentration for half-maximal inhibition (IC50) at TEAD1 (setting [3]) was 290 nM; on TEAD3 (setting [4]), 2900 nM; at TEAD4 (setting [5]) it was 30 nM; against TEAD2 [1] it was 89 nM.
As to `C=C(F)C(=O)N1CC(c2nn(-c3ccc(OC(F)(F)F)cc3)c3nccc(CO)c23)C1` [Compound 20, 2-fluoro-1-[3-[4-(hydroxymethyl)-1-[4-(trifluoromethoxy)phenyl]pyrazolo[3,4-b]pyridin-3-yl]azetidin-1-yl]prop-2-en-1-one], the IC50 on hNav1.5 sodium channels was determined as 42.1 µM.
For `C=CC(=O)NCc1nn(-c2ccc(OC(F)(F)F)cc2)c2nccc(N3CCOCC3)c12` [Compound 77, N-((4-morpholino-1-(4-(trifluoromethoxy)phenyl)-1H-pyrazolo[3,4-b]pyridin-3-yl)methyl)acrylamide], the IC50 on TEAD1 (setting [3]) was 93 nM; at TEAD3 (setting [4]), 5700 nM; on TEAD4 (setting [5]), 65 nM; against TEAD2 [1], 40 nM.
Regarding `[2H]C([2H])=C([2H])C(=O)NCc1nn(-c2ccc(OC(F)(F)F)cc2)c2nccc(CO)c12` [Compound 111, 2,3,3-Trideuterio-N-[[4-(hydroxymethyl)-1-[4-(trifluoromethoxy)phenyl]pyrazolo[3,4-b]pyridin-3-yl]methyl]prop-2-enamide], the half-inhibitory concentration (IC50) at TEAD1 (setting [3]) amounted to 16 nM; on TEAD3 (setting [4]), 290 nM; at TEAD4 (setting [5]) it was 28 nM; against TEAD2 [1], 62 nM.
As for `[2H]C([2H])=C([2H])C(=O)NCc1nn(-c2ccc(OC(F)(F)F)cc2)c2nccc([C@H](O)CO)c12` [Compound 154, (S)-N-((4-(1,2-Dihydroxyethyl)-1-(4-(trifluoromethoxy)phenyl)-1H-pyrazolo[3,4-b]pyridin-3-yl)methyl)acrylamide-2,3,3-d3], the IC50 at TEAD1 is 44 nM; at TEAD3 it was 1200 nM; at TEAD4, 22 nM; against TEAD2 [1], 36 nM.
As to `C=C(F)C(=O)N1CC(c2nn(-c3ccc(OC(F)(F)F)cc3)c3nccc(-c4cnn(C(C)C)c4)c23)C1` [Compound 178, 2-fluoro-1-(3-(4-(1-isopropyl-1H-pyrazol-4-yl)-1-(4-(trifluoromethoxy)phenyl)-1H-pyrazolo[3,4-b]pyridin-3-yl)azetidin-1-yl)prop-2-en-1-one], the 50% inhibitory concentration (IC50) on TEAD1 (setting [3]) was 87 nM; on TEAD3 (setting [4]) it was 50000 nM; on TEAD4 (setting [5]), 200 nM; against TEAD2 [2] it was 860 nM.
In the case of `C=C(F)C(=O)N1CC(c2nn(-c3ccc(OC(F)(F)F)cc3)c3nccc(-c4cnn(CCS(C)(=O)=O)c4)c23)C1` [Compound 179, 2-fluoro-1-(3-(4-(1-(2-(methylsulfonyl)ethyl)-1H-pyrazol-4-yl)-1-(4-(trifluoromethoxy)phenyl)-1H-pyrazolo[3,4-b]pyridin-3-yl)azetidin-1-yl)prop-2-en-1-one], the IC50 at TEAD1 (setting [3]) amounted to 32 nM; at TEAD3 (setting [4]), 50000 nM; on TEAD4 (setting [5]), 17 nM; against TEAD2 [2], 650 nM.
The like results for `C=C(F)C(=O)N1CC(c2nn(-c3ccc(OC(F)(F)F)cc3)c3nccc(-c4cnn(CC(=O)N(C)C)c4)c23)C1` [Compound 180, 2-(4-(3-(1-(2-fluoroacryloyl)azetidin-3-yl)-1-(4-(trifluoromethoxy)phenyl)-1H-pyrazolo[3,4-b]pyridin-4-yl)-1H-pyrazol-1-yl)-N,N-dimethylacetamide] were, in that order, 43 nM, 50000 nM, 110 nM and 160 nM.
For the compound `C=C(F)C(=O)N1CC(c2nn(-c3ccc(OC(F)(F)F)cc3)c3nccc(-c4cnn(CC(N)=O)c4)c23)C1` [Compound 181, 2-(4-(3-(1-(2-fluoroacryloyl)azetidin-3-yl)-1-(4-(trifluoromethoxy)phenyl)-1H-pyrazolo[3,4-b]pyridin-4-yl)-1H-pyrazol-1-yl)acetamide], the IC50 on TEAD1 (setting [3]) came to 24 nM; on TEAD3 (setting [4]), 50000 nM; on TEAD4 (setting [5]) it was 37 nM; at TEAD2 [2], 62 nM.
On to `C=C(F)C(=O)N1CC(c2nn(-c3ccc(OC(F)(F)F)cc3)c3nccc(-c4cn[nH]c4)c23)C1` [Compound 182, 1-(3-(4-(1H-pyrazol-4-yl)-1-(4-(trifluoromethoxy)phenyl)-1H-pyrazolo[3,4-b]pyridin-3-yl)azetidin-1-yl)-2-fluoroprop-2-en-1-one], for which the IC50 on TEAD1 (setting [3]) came to 25 nM; at TEAD3 (setting [4]), 440 nM; on TEAD4 (setting [5]), 13 nM; against TEAD2 [2], 130 nM.
As for `C=C(F)C(=O)N1CC(c2nn(-c3ccc(OC(F)(F)F)cc3Cl)c3nccc(CO)c23)C1` [Compound 183, 1-(3-(1-(2-chloro-4-(trifluoromethoxy)phenyl)-4-(hydroxymethyl)-1H-pyrazolo[3,4-b]pyridin-3-yl)azetidin-1-yl)-2-fluoroprop-2-en-1-one], the IC50 at TEAD1 (setting [3]) came to 180 nM; on TEAD3 (setting [4]), 1100 nM; at TEAD4 (setting [5]) it was 110 nM; at TEAD2 [2] it was 1800 nM.
In the same order, the values of `C=C(F)C(=O)N1CC(c2nn(-c3ccc(OC(F)(F)F)cc3C)c3nccc(CO)c23)C1` [Compound 184, 2-fluoro-1-(3-(4-(hydroxymethyl)-1-(2-methyl-4-(trifluoromethoxy)phenyl)-1H-pyrazolo[3,4-b]pyridin-3-yl)azetidin-1-yl)prop-2-en-1-one] are 140 nM, 790 nM, 100 nM and 2300 nM.
Consider `C=C(F)C(=O)N1CC(c2nn(-c3ccc(OC(F)(F)F)cc3F)c3nccc(CO)c23)C1` [Compound 185, 2-fluoro-1-[3-[1-[2-fluoro-4-(trifluoromethoxy)phenyl]-4-(hydroxymethyl)pyrazolo[3,4-b]pyridin-3-yl]azetidin-1-yl]prop-2-en-1-one], for which the IC50 is 57 nM at TEAD1 (setting [3]), 260 nM on TEAD3 (setting [4]), 31 nM at TEAD4 (setting [5]) and 120 nM against TEAD2 [2].
Take `C=CC(=O)NCc1nn(-c2ccc(OC(F)(F)F)cc2)c2cccc(C#N)c12` [Compound 186, N-((4-cyano-1-(4-(trifluoromethoxy)phenyl)-1H-indazol-3-yl)methyl)acrylamide]: the half-inhibitory concentration (IC50) amounted to 270 nM at TEAD1 (setting [3]), 255 nM on TEAD3 (setting [4]), 52.5 nM at TEAD4 (setting [5]) and 430 nM against TEAD2 [2].
As for `C=CC(=O)NCc1nn(-c2ccc(OC(F)(F)F)cc2)c2cccnc12` [Compound 187, N-((1-(4-(trifluoromethoxy)phenyl)-1H-pyrazolo[4,3-b]pyridin-3-yl)methyl)acrylamide], the IC50 on TEAD1 (setting [3]) was determined as 91 nM; on TEAD3 (setting [4]), 950 nM; at TEAD4 (setting [5]), 55 nM; against TEAD2 [2] it was 1200 nM.
Turning to `C=CC(=O)NCc1nn(-c2ccc(OC(F)(F)F)cc2)c2ncccc12` [Compound 188, N-((1-(4-(trifluoromethoxy)phenyl)-1H-pyrazolo[3,4-b]pyridin-3-yl)methyl)acrylamide], the IC50 at TEAD1 (setting [3]) turned out to be 7.2 nM; at TEAD3 (setting [4]) it was 150 nM; at TEAD4 (setting [5]), 7.3 nM; against TEAD2 [2], 84 nM.
